Results: publication PMC8213762, “An epitope-specific chemically defined nanoparticle vaccine for respiratory syncytial virus” (NPJ Vaccines, 2021)
Entries after “also recorded” stand apart in the source; their conditions may differ.

Key:
palivizumab = assay: ELISA binding of palivizumab to coated V-306, V-306p or SVLP carrier; design: species or system humanized murine
Method: These ELISA were performed at the Center for Vaccinology (CEVAC), Ghent University and University Hospital, Belgium, based on the methods described above. […] Then 8 twofold serial dilutions of human serum were added. After washing, anti-human IgG Fc mAb-HRP (1/120,000 dilution) was added. After washing, TMB substrate was added. The color reaction was terminated by the addition of 1 N sulphuric acid. After 30 min the OD is read. The optical density for a given sample was used to extrapolate the Ab titer expressed in µg/mL. The coating conditions were optimized using IgG-depleted human serum spiked with known concentrations of palivizumab such that no further increase in signal is observed (saturation point) and no significant signal is seen in the negative control. The sensitivity of the assay was determined using different concentrations of palivizumab (from 0 to 200 µg/mL) and of anti-human IgG HRP-conjugated Ab (see Supplementary Fig. 5). The detection limit was 0.012207 µg/mL palivizumab (0.61 µg/mL in human serum diluted 1/50). The palivizumab-like Ab concentrations found in 20 different human sera (serum samples 001–020) are shown in Supplementary Fig. 5.

RSV A Tracy = RSV A Tracy microneutralization (MN) assay of mAbs; assay type: cell-based, respiratory syncytial virus; settings: for MN titer: RSV A Tracy, HEp-2 cells, 50% reduction in viral cytopathic effect
Method: The RSV A Tracy MN assay was performed by Prof. Pedro Piedra at Baylor College of Medicine, Texas, USA. Heat-inactivated serum samples were analyzed for nAbs against RSV A/Tracy in HEp-2 cells using qualified MN assays as previously described[38]–[41]. nAb titers were defined as the final dilution at which there was a 50% reduction in viral cytopathic effect. Any serum sample resulting in a titer less than the lower limit of detection (LOD) (2.5 log2) was assigned a value of 2 log2.

RSV strain A2 = assay: Passive transfer challenge model, lung virus titer by plaque assay; assay type: in vivo; settings: cotton rats n = 5, mAb 24 h before challenge with 10^4 PFU RSV A2, doses 1.0, 2.5, 5.0, 15 mg; lungs day 5; ****P ≤ 0.0001 vs PBS
Method: The challenge study comparing 10D11 and palivizumab was performed at Sigmovir Biosystems Inc. (MD, USA). Young adult male cotton rats (8, 6–8 weeks old) were treated IM with the mAb (1.0, 2.5, 5.0, or 15 mg doses). All animals were challenged with 100 µl RSV/A2 at 10^5 pfu per animal. After sacrificing the animals, nasal and lung tissue were harvested for viral titration using the RSV/A2 60% PRNT assay described above.

In the case of “palivizumab: prophylactic humanized murine monoclonal nAb”, the “detection limit of ELISA” value (palivizumab; ELISA with palivizumab standard 0 to 200 µg/mL) is reported as 0.01221 µg/mL, the “detection limit of ELISA in human serum” value (palivizumab; human serum diluted 1/50) is reported as 0.61 µg/mL and the MN titer (RSV A Tracy) is reported as 5.0 log2. The “reduction of RSV replication in lungs, passive transfer” value (RSV strain A2) was “significantly reduced RSV replication in the lungs in a dose-dependent manner”.

B1: 10D11: monoclonal antibody against V-306 generated in BALB/c mice (antibody, V domains shown)
VH: QVQLKESGPGLVAPSQSLSITCTVSGFSLTSYDISWIRQPPGKGLEWLGIIWNGGGTNYNSAFMSRLSINKDNSKSQVFLKMNSLQTDDTAIYYCVRGDYDYAWFDYWGQGTLVTVSA
VL: NIMMTQSPSSLTVSAGEKVTMSCKSSQSVLYGSNQKNYLAWYQQKPGQSPKLLIYWASTRDSGVPDRFTGSGSGTDFTLTISSVQAEDLAVYYCHQYLFSWTFGGGTKLEIK
B1 was tested, and the “MN potency of 10D11 relative to palivizumab (fold)” value (RSV A Tracy; RSV A Tracy MN) was “approximately fourfold”, the MN titer (RSV A Tracy) was 7.0 log2 and the “reduction of RSV replication in lungs, passive transfer” value (RSV strain A2) was “significantly reduced RSV replication in the lungs in a dose-dependent manner; also recorded: reduced lung virus titers in a dose-dependent manner”.
